Laboratory results as given in US20070049564A1 (Wyeth, priority 2005, published 2007).
≈ marks a conversion by molar mass, not a printed value. Where two headings read alike, the source gives them in different places.

Tests used:
S. agalactiae GC 4564 = test: MIC, broth microdilution; details: Streptococcus agalactiae
E. coli GC 2271 = test: MIC, broth microdilution; details: Escherichia coli
S. pyogenes GC 4563 = test: MIC, broth microdilution; details: Streptococcus pyogenes
S. pneumoniae* GC 4465 = test: MIC, broth microdilution; details: Streptococcus pneumoniae
Method: (§1) Antimicrobial susceptibility testing. The in vitro activities of the antibiotics are determined by the broth microdilution method as recommended by the National Committee for Clinical Laboratory Standards (NCCLS) (1). Mueller-Hinton II broth (MHBII)(BBL Cockeysville, Md.) is the medium employed in the testing procedures. Microtiter plates containing serial dilutions of each antimicrobial agent are inoculated with each organism to yield the appropriate density (10^5 CFU/ml) in a 100 μl final volume. The plates are incubated for 18-22 hours at 35° C. in ambient air.
(§2) Representative compounds were first incubated in mouse serum for an hour prior to the in vitro testing against a panel of selected gram-positive and gram-negative bacteria strains. All compounds were also pre-incubated in water for an hour prior to testing as control. Representative compounds of Formula I were incubated in human serum prior to MIC determination.

S. pneumoniae+ GC 4465 = test: MIC, broth microdilution; details: Streptococcus pneumoniae
S. aureus GC 6335 = test: MIC, broth microdilution; details: Staphylococcus aureus
Method: as §1, §2

E. coli GC 2203 = test: MIC, broth microdilution; details: Escherichia coli
E. coli GC 2232 = test: MIC, broth microdilution; details: Escherichia coli
E. coli GC 3226 = test: MIC, broth microdilution; details: Escherichia coli
P. aeruginosa GC 2214 = test: MIC, broth microdilution; details: Pseudomonas aeruginosa
E. faecalis GC 2265 = test: MIC, broth microdilution; details: Enterococcus faecalis
S. aureus GC 1131 = test: MIC, broth microdilution; details: Staphylococcus aureus
E. coli GC 2272 = test: MIC, broth microdilution; details: Escherichia coli
Method: as §1, §2

E. faecalis GC 2267 = test: MIC, broth microdilution; details: Enterococcus faecalis
E. faecalis GC 4555 = test: MIC, broth microdilution; details: Enterococcus faecalis
Method: as §1, §2

E. coli GC 2236 = test: MIC, broth microdilution; details: Escherichia coli
E. coli GC 4559 = test: MIC, broth microdilution; details: Escherichia coli
S. epidermidis GC 4935 = test: MIC, broth microdilution; details: Staphylococcus epidermidis
E. coli GC 2234 = test: MIC, broth microdilution; details: Escherichia coli
Staph. aureus Smith = test: In vivo activity (oral, iv; ED50) against Staph. aureus Smith in mice
Method: Representative examples of compounds of Formula I were tested for the oral efficacy using S. aureus Smith in mice.

[1] = read-out: MINIMAL INHIBITORY CONCENTRATION MIC, pre-incubated in Human Serum
[2] = read-out: MINIMAL INHIBITORY CONCENTRATION MIC, pre-incubated in Mouse Serum
[3] = read-out: MINIMAL INHIBITORY CONCENTRATION MIC, pre-incubated in Water

## CN(C)c1cc(NC(=O)CN(C(=O)OCOC(=O)c2ccc(C(C)(C)C)cc2)C(C)(C)C)c(O)c2c1C[C@H]1C[C@H]3[C@H](N(C)C)C(O)=C(C(N)=O)C(=O)[C@@]3(O)C(O)=C1C2=O [Example 43, ({[(2-{[(5aR,6aS,7S,10aS)-9-(aminocarbonyl)-4,7-bis(dimethylamino)-1,8,10a,11-tetrahydroxy-10,12-dioxo-5,5a,6,6a,7,10,10a,12-octahydrotetracen-2-yl]amino}-2-oxoethyl)(tert-butyl)amino]carbonyl}oxy)methyl 4-tert-butylbenzoate]
S. agalactiae GC 4564; GC4564, read-out: MINIMAL INHIBITORY CONCENTRATION MIC, pre-incubated in Human Serum
  MIC: 2 µg/mL (≈ 2.44 µM)
S. agalactiae GC 4564; GC4564, read-out: MINIMAL INHIBITORY CONCENTRATION MIC, pre-incubated in Mouse Serum
  MIC: < 0.06 µg/mL
S. agalactiae GC 4564; GC4564, read-out: MINIMAL INHIBITORY CONCENTRATION MIC, pre-incubated in Water
  MIC: 2 µg/mL (≈ 2.44 µM)
E. coli GC 2271; GC2271, read-out: MINIMAL INHIBITORY CONCENTRATION MIC, pre-incubated in Human Serum
  MIC: > 64 µg/mL
E. coli GC 2271; GC2271, read-out: MINIMAL INHIBITORY CONCENTRATION MIC, pre-incubated in Mouse Serum
  MIC: 0.25 µg/mL (≈ 0.305 µM)
E. coli GC 2271; GC2271, read-out: MINIMAL INHIBITORY CONCENTRATION MIC, pre-incubated in Water
  MIC: > 64 µg/mL
S. pyogenes GC 4563; GC4563, read-out: MINIMAL INHIBITORY CONCENTRATION MIC, pre-incubated in Human Serum
  MIC: < 0.06 µg/mL
S. pyogenes GC 4563; GC4563, read-out: MINIMAL INHIBITORY CONCENTRATION MIC, pre-incubated in Mouse Serum
  MIC: < 0.06 µg/mL
S. pyogenes GC 4563; GC4563, read-out: MINIMAL INHIBITORY CONCENTRATION MIC, pre-incubated in Water
  MIC: < 0.06 µg/mL
S. pneumoniae* GC 4465; [1]
  MIC: 1 µg/mL (≈ 1.22 µM)
S. pneumoniae* GC 4465; [2]
  MIC: < 0.06 µg/mL
S. pneumoniae* GC 4465; [3]
  MIC: 0.5 µg/mL (≈ 0.61 µM)
S. pneumoniae+ GC 4465; [1]
  MIC: 2 µg/mL (≈ 2.44 µM)
S. pneumoniae+ GC 4465; [2]
  MIC: 2 µg/mL (≈ 2.44 µM)
S. pneumoniae+ GC 4465; [3]
  MIC: 2 µg/mL (≈ 2.44 µM)
S. aureus GC 6335; GC6335, read-out: MINIMAL INHIBITORY CONCENTRATION MIC, pre-incubated in Human Serum
  MIC: 64 µg/mL (≈ 78.1 µM)
S. aureus GC 6335; GC6335, read-out: MINIMAL INHIBITORY CONCENTRATION MIC, pre-incubated in Mouse Serum
  MIC: 1 µg/mL (≈ 1.22 µM)
S. aureus GC 6335; GC6335, read-out: MINIMAL INHIBITORY CONCENTRATION MIC, pre-incubated in Water
  MIC: 64 µg/mL (≈ 78.1 µM)
E. coli GC 2203; GC2203, read-out: MINIMAL INHIBITORY CONCENTRATION MIC, pre-incubated in Human Serum
  MIC: > 64 µg/mL
E. coli GC 2203; GC2203, read-out: MINIMAL INHIBITORY CONCENTRATION MIC, pre-incubated in Mouse Serum
  MIC: 0.5 µg/mL (≈ 0.61 µM)
E. coli GC 2203; GC2203, read-out: MINIMAL INHIBITORY CONCENTRATION MIC, pre-incubated in Water
  MIC: > 64 µg/mL
E. coli GC 2232; GC2232, read-out: MINIMAL INHIBITORY CONCENTRATION MIC, pre-incubated in Human Serum
  MIC: > 64 µg/mL
E. coli GC 2232; GC2232, read-out: MINIMAL INHIBITORY CONCENTRATION MIC, pre-incubated in Mouse Serum
  MIC: 0.5 µg/mL (≈ 0.61 µM)
E. coli GC 2232; GC2232, read-out: MINIMAL INHIBITORY CONCENTRATION MIC, pre-incubated in Water
  MIC: > 64 µg/mL
E. coli GC 3226; GC3226, read-out: MINIMAL INHIBITORY CONCENTRATION MIC, pre-incubated in Human Serum
  MIC: > 64 µg/mL
E. coli GC 3226; GC3226, read-out: MINIMAL INHIBITORY CONCENTRATION MIC, pre-incubated in Mouse Serum
  MIC: 1 µg/mL (≈ 1.22 µM)
E. coli GC 3226; GC3226, read-out: MINIMAL INHIBITORY CONCENTRATION MIC, pre-incubated in Water
  MIC: > 64 µg/mL
P. aeruginosa GC 2214; GC2214, read-out: MINIMAL INHIBITORY CONCENTRATION MIC, pre-incubated in Human Serum
  MIC: > 64 µg/mL
P. aeruginosa GC 2214; GC2214, read-out: MINIMAL INHIBITORY CONCENTRATION MIC, pre-incubated in Mouse Serum
  MIC: 16 µg/mL (≈ 19.5 µM)
P. aeruginosa GC 2214; GC2214, read-out: MINIMAL INHIBITORY CONCENTRATION MIC, pre-incubated in Water
  MIC: > 64 µg/mL
E. faecalis GC 2265; GC2265, read-out: MINIMAL INHIBITORY CONCENTRATION MIC, pre-incubated in Human Serum
  MIC: 8 µg/mL (≈ 9.76 µM)
E. faecalis GC 2265; GC2265, read-out: MINIMAL INHIBITORY CONCENTRATION MIC, pre-incubated in Mouse Serum
  MIC: 0.5 µg/mL (≈ 0.61 µM)
E. faecalis GC 2265; GC2265, read-out: MINIMAL INHIBITORY CONCENTRATION MIC, pre-incubated in Water
  MIC: 32 µg/mL (≈ 39 µM)
S. aureus GC 1131; GC1131, read-out: MINIMAL INHIBITORY CONCENTRATION MIC, pre-incubated in Human Serum
  MIC: 16 µg/mL (≈ 19.5 µM)
S. aureus GC 1131; GC1131, read-out: MINIMAL INHIBITORY CONCENTRATION MIC, pre-incubated in Mouse Serum
  MIC: 1 µg/mL (≈ 1.22 µM)
S. aureus GC 1131; GC1131, read-out: MINIMAL INHIBITORY CONCENTRATION MIC, pre-incubated in Water
  MIC: 64 µg/mL (≈ 78.1 µM)
E. coli GC 2272; GC2272, read-out: MINIMAL INHIBITORY CONCENTRATION MIC, pre-incubated in Human Serum
  MIC: > 64 µg/mL
E. coli GC 2272; GC2272, read-out: MINIMAL INHIBITORY CONCENTRATION MIC, pre-incubated in Mouse Serum
  MIC: 0.5 µg/mL (≈ 0.61 µM)
E. coli GC 2272; GC2272, read-out: MINIMAL INHIBITORY CONCENTRATION MIC, pre-incubated in Water
  MIC: > 64 µg/mL
E. faecalis GC 2267; GC2267, read-out: MINIMAL INHIBITORY CONCENTRATION MIC, pre-incubated in Human Serum
  MIC: 4 µg/mL (≈ 4.88 µM)
E. faecalis GC 2267; GC2267, read-out: MINIMAL INHIBITORY CONCENTRATION MIC, pre-incubated in Mouse Serum
  MIC: 0.5 µg/mL (≈ 0.61 µM)
E. faecalis GC 2267; GC2267, read-out: MINIMAL INHIBITORY CONCENTRATION MIC, pre-incubated in Water
  MIC: 32 µg/mL (≈ 39 µM)
E. faecalis GC 4555; GC4555, read-out: MINIMAL INHIBITORY CONCENTRATION MIC, pre-incubated in Human Serum
  MIC: 8 µg/mL (≈ 9.76 µM)
E. faecalis GC 4555; GC4555, read-out: MINIMAL INHIBITORY CONCENTRATION MIC, pre-incubated in Mouse Serum
  MIC: 0.5 µg/mL (≈ 0.61 µM)
E. faecalis GC 4555; GC4555, read-out: MINIMAL INHIBITORY CONCENTRATION MIC, pre-incubated in Water
  MIC: 32 µg/mL (≈ 39 µM)
E. coli GC 2236; GC2236, read-out: MINIMAL INHIBITORY CONCENTRATION MIC, pre-incubated in Human Serum
  MIC: > 64 µg/mL
E. coli GC 2236; GC2236, read-out: MINIMAL INHIBITORY CONCENTRATION MIC, pre-incubated in Mouse Serum
  MIC: 0.5 µg/mL (≈ 0.61 µM)
E. coli GC 2236; GC2236, read-out: MINIMAL INHIBITORY CONCENTRATION MIC, pre-incubated in Water
  MIC: > 64 µg/mL
E. coli GC 4559; GC4559, read-out: MINIMAL INHIBITORY CONCENTRATION MIC, pre-incubated in Human Serum
  MIC: > 64 µg/mL
E. coli GC 4559; GC4559, read-out: MINIMAL INHIBITORY CONCENTRATION MIC, pre-incubated in Mouse Serum
  MIC: 0.5 µg/mL (≈ 0.61 µM)
E. coli GC 4559; GC4559, read-out: MINIMAL INHIBITORY CONCENTRATION MIC, pre-incubated in Water
  MIC: > 64 µg/mL
S. epidermidis GC 4935; GC4935, read-out: MINIMAL INHIBITORY CONCENTRATION MIC, pre-incubated in Human Serum
  MIC: 4 µg/mL (≈ 4.88 µM)
S. epidermidis GC 4935; GC4935, read-out: MINIMAL INHIBITORY CONCENTRATION MIC, pre-incubated in Mouse Serum
  MIC: 2 µg/mL (≈ 2.44 µM)
S. epidermidis GC 4935; GC4935, read-out: MINIMAL INHIBITORY CONCENTRATION MIC, pre-incubated in Water
  MIC: 32 µg/mL (≈ 39 µM)
E. coli GC 2234; GC2234, read-out: MINIMAL INHIBITORY CONCENTRATION MIC, pre-incubated in Human Serum
  MIC: > 64 µg/mL
E. coli GC 2234; GC2234, read-out: MINIMAL INHIBITORY CONCENTRATION MIC, pre-incubated in Mouse Serum
  MIC: 0.25 µg/mL (≈ 0.305 µM)
E. coli GC 2234; GC2234, read-out: MINIMAL INHIBITORY CONCENTRATION MIC, pre-incubated in Water
  MIC: > 64 µg/mL
Staph. aureus Smith; Staphylococcus aureus, in Mus musculus, po, read-out: ED50 Staph Smith SOD
  ED50: 12.8 mg/kg
Staph. aureus Smith; iv, read-out: ED50 Staph Smith SIV
  ED50: 0.83 mg/kg
